Assay results: patent publication US20110124666A1, “3,4-DIHYDROPYRIMIDINE TRPA1 ANTAGONISTS” (Janssen Pharmaceutica NV a corporation, priority 2008, published 2011)

Biological target: T1, hTRPA1 (Homo sapiens, UniProt O75762)
T1 construct: expressed in transfected cells
Experiment: Ca2+ fluorometry TRPA1 antagonism in hTRPA1/TREx-HEK293 cells (FDSS)
Type: cell-based
Settings: 11H-dibenzo[b,e]azepine-10-carboxylic acid methyl ester as TRPA1 agonist (25 nM), hTRPA1-HEK cells, Fluo4-AM
Source text: The Human TRPA1 gene was cloned into the pT-REx-Dest30 inducible vector and afterwards stably transfected in T-Rex^TM-293 cells (purchased from Invitrogen, Merelbeke, Belgium). This tetracyclin inducible hTRPA1 expression system was used in order to prevent Ca^2+ overload in the cultured cells due to sustained TRPA1 expression. hTRPAl/TREx-HEK293 cells (referred to as hTRPA1 cells in the following text) were maintained under standard sterile cell culture conditions.
Binding of an agonist to the TRPA1 ion-channel activates and opens the ion-channel which causes a robust increase in intracellular Ca^2+ concentration. For detecting and measuring intracellular Ca^2+ concentration, cells were loaded with a Ca^2+-sensitive dye. Changes in fluorescence in the cell, that correspond to changes in Ca^2+ concentration in the cell, can kinetically be monitored with the FDSS instrument (Hamamatsu) and are indicative for agonism towards the TRPA1 ion channel and this can be reduced by TRPA1-receptor antagonists.
The cells were seeded in poly-D-lysine-coated 384-well round bottom polypropylene plates (Costar Corning, Data Packaging, Cambridge Mass., USA) at 12000 cells/well. 50 ng/ml tetracycline was added to induce the hTRPA1 expression 24 h before the experiment.
The cells were loaded with 5 mg/l Fluo4-AM (Molecular Probes, Invitrogen, Merelbeke, Belgium) dissolved in HBSS seeding medium supplemented with 0.7 g/l Probenecid (Sigma) and incubated for 1 h at 37° C. and subsequently at 20° C. for 1 to 2 h. The fluorescence was measured in the FDSS 6000 imaging based plate reader (Hamamutsu Photonics K.K., Hamamutsu City, Japan). The excitation wavelength was 488 nm and the emission wavelength 540 nm. After a control period of 12 seconds the JNJ compounds were added and the Ca^2+ signal was measured within 14 minutes after application. Finally, the control TRPA1 agonist 11H-dibenzo[b,e]azepine-10-carboxylic acid methyl ester [the synthesis of which is hereafter described as compound (D-6)] or BITC (benzylisothiocyanate, FLUKA) was added at a final concentration of 25 nM. […] The emission ratio was calculated by dividing the emission signal (Em540) by the first Em540 signal of the control period to compensate for the background fluorescence. On every 384 well plate 4 series of DMSO control experiments were performed of which 2 with and 2 without control agonist 11H-dibenzo[b,e]azepine-10-carboxylic acid methyl ester or BITC. For intracellular Ca^2+ measurements compound stock solutions (10 or 100 mM) were further diluted in DMSO in order to obtain finally 1% DMSO in the extracellular solution.

T1 sequence (O75762 whole entry): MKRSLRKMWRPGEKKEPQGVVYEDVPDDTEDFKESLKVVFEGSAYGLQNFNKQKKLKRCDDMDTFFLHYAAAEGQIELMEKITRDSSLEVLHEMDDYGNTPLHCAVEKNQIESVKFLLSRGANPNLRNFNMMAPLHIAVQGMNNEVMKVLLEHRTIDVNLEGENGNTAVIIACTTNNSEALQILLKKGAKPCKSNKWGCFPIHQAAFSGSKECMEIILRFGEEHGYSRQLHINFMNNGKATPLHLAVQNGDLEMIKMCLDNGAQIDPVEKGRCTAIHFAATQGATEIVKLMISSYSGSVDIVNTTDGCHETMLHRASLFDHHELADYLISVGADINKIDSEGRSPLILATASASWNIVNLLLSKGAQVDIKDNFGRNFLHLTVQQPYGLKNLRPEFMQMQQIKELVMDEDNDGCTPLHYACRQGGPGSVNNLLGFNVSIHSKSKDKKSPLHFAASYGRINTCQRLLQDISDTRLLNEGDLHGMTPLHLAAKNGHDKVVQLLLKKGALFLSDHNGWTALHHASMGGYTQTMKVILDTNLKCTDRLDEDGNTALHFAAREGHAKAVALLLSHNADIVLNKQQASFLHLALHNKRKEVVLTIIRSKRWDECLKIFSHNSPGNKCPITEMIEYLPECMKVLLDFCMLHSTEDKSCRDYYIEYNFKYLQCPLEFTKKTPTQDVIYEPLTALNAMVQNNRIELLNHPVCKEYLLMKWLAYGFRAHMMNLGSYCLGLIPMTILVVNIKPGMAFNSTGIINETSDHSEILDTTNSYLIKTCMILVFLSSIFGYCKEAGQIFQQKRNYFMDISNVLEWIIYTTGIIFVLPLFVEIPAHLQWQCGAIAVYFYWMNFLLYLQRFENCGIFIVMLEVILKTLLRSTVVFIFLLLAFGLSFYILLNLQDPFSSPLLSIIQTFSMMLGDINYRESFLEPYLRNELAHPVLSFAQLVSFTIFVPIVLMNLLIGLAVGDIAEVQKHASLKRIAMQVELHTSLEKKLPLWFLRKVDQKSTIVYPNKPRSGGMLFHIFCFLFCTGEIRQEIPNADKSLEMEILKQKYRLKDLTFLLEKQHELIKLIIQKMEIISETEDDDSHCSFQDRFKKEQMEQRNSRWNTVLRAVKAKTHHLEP

IC50 [µM] | SMILES
~0.128 | COc1cccc(C2NC(=S)NC3=C2C(=O)c2ccccc23)c1 (stereo not shown) [compound 1]
~0.076 | COc1cccc([C@H]2NC(=S)NC3=C2C(=O)c2ccccc23)c1 [compound 2]
> 10 | COc1cccc([C@@H]2NC(=S)NC3=C2C(=O)c2ccccc23)c1 [compound 3]
~0.636 | O=C1C2=C(NC(=S)NC2c2cccc(O)c2)c2ccccc21 (stereo not shown) [compound 6]
0.047 | COCCCOc1cccc(C2NC(=S)NC3=C2C(=O)c2ccccc23)c1 (stereo not shown) [compound 7]
~1.06 | O=C1C2=C(NC(=S)NC2c2cccc(F)c2)c2ccccc21 (stereo not shown) [compound 8]
0.495 | O=C1C2=C(NC(=S)NC2c2cccc(Br)c2)c2ccccc21 (stereo not shown) [compound 11]
0.213 | O=C1C2=C(NC(=S)NC2c2cccc(OCCO)c2)c2ccccc21 (stereo not shown) [compound 13]
~0.708 | O=C1C2=C(NC(=S)NC2c2cccc(CO)c2)c2ccccc21 (stereo not shown) [compound 14]
0.314 | CCCCOc1cccc(C2NC(=S)NC3=C2C(=O)c2ccccc23)c1 (stereo not shown) [compound 21]
~0.685 | O=C1C2=C(NC(=S)NC2c2cccc(OCCCCO)c2)c2ccccc21 (stereo not shown) [compound 25]
~0.013 | COCCCOc1cccc([C@H]2NC(=S)NC3=C2C(=O)c2ccccc23)c1 [compound 29]
> 10 | COCCCOc1cccc([C@@H]2NC(=S)NC3=C2C(=O)c2ccccc23)c1 [compound 30]

The remaining lines, values behind:

SMILES | IC50 [µM]
COc1cccc(C2NC(=O)N(Cc3ccccc3)C3=C2C(=O)c2ccccc23)c1 (stereo not shown) [compound 4] | ~6.03
COc1cc(OC)cc(C2NC(=S)NC3=C2C(=O)c2ccccc23)c1 (stereo not shown) [compound 5] | ~2.77
COc1cccc(C2NC(=S)NC3=C2C(=O)c2ccccc23)c1OC (stereo not shown) [compound 9] | > 10
COc1ccc(F)c(C2NC(=S)NC3=C2C(=O)c2ccccc23)c1 (stereo not shown) [compound 10] | ~0.365
O=C1C2=C(NC(=S)NC2c2cccc3c2OCO3)c2ccccc21 (stereo not shown) [compound 12] | ~4.41
COc1ccc(OC)c(C2NC(=S)NC3=C2C(=O)c2ccccc23)c1 (stereo not shown) [compound 15] | > 10
COc1cccc(C2NC(=S)NC3=C2C(=O)c2ccccc23)c1F (stereo not shown) [compound 16] | ~0.287
COCCCOc1cccc([C@H]2NC(=O)NC3=C2C(=O)c2ccccc23)c1 [compound 18] | 1.32
COCCCOc1cccc([C@@H]2NC(=O)NC3=C2C(=O)c2ccccc23)c1 [compound 19] | > 10
CCN(CC)CCOc1cccc(C2NC(=S)NC3=C2C(=O)c2ccccc23)c1 (stereo not shown) [compound 22] | 1.2
O=C1C2=C(NC(=S)NC2c2cccc(OCCCOc3ccc(F)cc3)c2)c2ccccc21 (stereo not shown) [compound 23] | 4.86
CC(=O)OCCCCOc1cccc(C2NC(=S)NC3=C2C(=O)c2ccccc23)c1 (stereo not shown) [compound 26] | 0.557
COc1cccc(C2C3=C(NC(=S)N2C)c2ccccc2C3=O)c1 (stereo not shown) [compound 27] | > 10
COc1cccc(C2NC(=S)N(C)C3=C2C(=O)c2ccccc23)c1 (stereo not shown) [compound 28] | ~0.085
O=C1C2=C(NC(=S)NC2c2cccc(-c3ccc(C(F)(F)F)cc3)c2)c2ccccc21 (stereo not shown) [compound 31] | > 10
O=C1C2=C(NC(=S)NC2c2cncc(Br)c2)c2ccccc21 (stereo not shown) [compound 32] | 1.67

Test system: not given
Experiment: not given
Settings: not given

melting point [°C] | SMILES
295.22 | COc1cccc(C2NC(=S)NC3=C2C(=O)c2ccccc23)c1 (stereo not shown) [Co. No. 1]
252.73 | COc1cccc([C@H]2NC(=S)NC3=C2C(=O)c2ccccc23)c1 [Co. No. 2]
253.6 | COc1cccc([C@@H]2NC(=S)NC3=C2C(=O)c2ccccc23)c1 [Co. No. 3]
288.04 | O=C1C2=C(NC(=S)NC2c2cccc(O)c2)c2ccccc21 (stereo not shown) [Co. No. 6]
261.08 | O=C1C2=C(NC(=S)NC2c2cccc(OCCO)c2)c2ccccc21 (stereo not shown) [Co. No. 13]
265.63 | O=C1C2=C(NC(=S)NC2c2cccc(CO)c2)c2ccccc21 (stereo not shown) [Co. No. 14]
243.58 | CCN(CC)CCOc1cccc(C2NC(=S)NC3=C2C(=O)c2ccccc23)c1 (stereo not shown) [Co. No. 22]
237.9 | CN(C)CCCOc1cccc(C2NC(=S)NC3=C2C(=O)c2ccccc23)c1 (stereo not shown) [Co. No. 24]
224.49 | O=C1C2=C(NC(=S)NC2c2cccc(OCCCCO)c2)c2ccccc21 (stereo not shown) [Co. No. 25]

The remaining lines, values behind:

SMILES | melting point [°C]
O=C1C2=C(NC(=S)NC2c2cncc(Br)c2)c2ccccc21 (stereo not shown) | 294.61
COc1cccc(C2NC(=O)N(Cc3ccccc3)C3=C2C(=O)c2ccccc23)c1 (stereo not shown) [Co. No. 4] | 188.65
COc1cc(OC)cc(C2NC(=S)NC3=C2C(=O)c2ccccc23)c1 (stereo not shown) [Co. No. 5] | 287.08
COc1ccc(F)c(C2NC(=S)NC3=C2C(=O)c2ccccc23)c1 (stereo not shown) [Co. No. 10] | 289.27
O=C1C2=C(NC(=S)NC2c2cccc3c2OCO3)c2ccccc21 (stereo not shown) [Co. No. 12] | 289.34
COc1ccc(OC)c(C2NC(=S)NC3=C2C(=O)c2ccccc23)c1 (stereo not shown) [Co. No. 15] | 295.33
COc1cccc(C2NC(=S)NC3=C2C(=O)c2ccccc23)c1F (stereo not shown) [Co. No. 16] | 287.05
COCCCOc1cccc([C@H]2NC(=O)NC3=C2C(=O)c2ccccc23)c1 [Co. No. 18] | 206.47
COCCCOc1cccc([C@@H]2NC(=O)NC3=C2C(=O)c2ccccc23)c1 [Co. No. 19] | 207.44
COc1ccc(Oc2cccc(C3NC(=S)NC4=C3C(=O)c3ccccc34)c2)cc1 (stereo not shown) [Co. No. 20] | 269.04
O=C1C2=C(NC(=S)NC2c2cccc(OCCCOc3ccc(F)cc3)c2)c2ccccc21 (stereo not shown) [Co. No. 23] | 245.01
CC(=O)OCCCCOc1cccc(C2NC(=S)NC3=C2C(=O)c2ccccc23)c1 (stereo not shown) [Co. No. 26] | 199.5
COc1cccc(C2C3=C(NC(=S)N2C)c2ccccc2C3=O)c1 (stereo not shown) [Co. No. 27] | 286.94
O=C1C2=C(NC(=S)NC2c2cccc(-c3ccc(C(F)(F)F)cc3)c2)c2ccccc21 (stereo not shown) [Co. No. 31] | 149.46
